From patent publication US20240101540A1, “TARGETED PROTEIN DEGRADATION OF PARP14 FOR USE IN THERAPY” (Ribon Therapeutics, Inc., priority 2022, published 2024)
Where a name gives a salt, the structure may show the parent alone.

Molecular target: T1, catalytic domain of human PARP14 (residues 1611 to 1801) with NanoLuc tag (Homo sapiens, UniProt Q460N5)
T1 construct: expressed in transfected cells; host or cells: HEK-293T cells (ATCC), pcDNA3.1(-) vector
T1 sequence (Q460N5 1611-1801): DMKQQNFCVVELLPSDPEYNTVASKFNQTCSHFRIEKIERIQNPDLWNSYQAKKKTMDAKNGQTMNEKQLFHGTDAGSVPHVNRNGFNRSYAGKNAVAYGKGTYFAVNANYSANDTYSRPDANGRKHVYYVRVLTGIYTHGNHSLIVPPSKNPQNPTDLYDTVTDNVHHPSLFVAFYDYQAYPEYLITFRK
Test: NanoLuc assay for the degradation of PARP14 (NanoLuc-tagged PARP14 overexpressed in HEK-293T cells, 2 hours)
Format: cell-based
Conditions: Assay A (Example A): NanoLuc-tagged PARP14 degradation in HEK-293T cells, read-out: DC50
Procedure: The insert also contained a NanoLuc tag on the N terminus of the PARP14 protein.
Degradation of PARP14 protein was assessed using measurement of the NanoLuc tag as proxy for the PARP14 protein. […] Plasmid DNA was diluted in empty vector DNA then added to 1.163 mL of phenol red free OptiMEM (Thermo Fisher). Plasmid DNA concentrations used in each assay described in Table 1. The plasmid DNA was mixed with 78.5 μL of Fugene HD (Promega) and allowed to incubate 5 minutes.
The transfection was incubated for 24 hrs at 37 degrees in an incubator supplemented with 5% CO2. The cells were then trypsinized and brought up in phenol red free OptiMEM media. […] 40 nL of a dose response curve diluted in DMSO of each test compound was added to the cell plate using a Mosquito (TTP Labtech) and the plate was incubated at 37° C. for 2 hours. Assay plate was brought to room temperature then 20 μL per well of NanoGlo (Promega) was added to the plate. Luminescence was measured on an Envision (Perkin Elmer).
The average DMSO was calculated from 32 wells containing 0.1% DMSO only in columns 12 and 24 of the assay plate. The % of DMSO values were calculated as described below: […]
The % of DMSO values were plotted as a function of compound concentration and the following 4-parameter fit was applied to derive the DC50 values:
where top, bottom, and Hill Coefficient are allowed to float. Y is the % of DMSO and X is the compound concentration
DC50 data for the Example compounds is provided below in Table 2 (“+” is <0.1 μM; “++” is ≥0.1 μM and <1 μM; and “+++” is ≥1 μM).

| SMILES | DC50 [nM] |
| --- | --- |
| O=C1CCC(N2C(=O)c3ccc(N4CCN(CC5CCN(C(=O)CN6CCC(COc7cc(F)c8c(=O)[nH]c(CSC9CCOCC9)nc8c7)CC6)CC5)CC4)cc3C2=O)C(=O)N1 (stereo not drawn) [Example 15, 2-(2,6-dioxopiperidin-3-yl)-5-(4-((1-(2-(4-(((5-fluoro-4-oxo-2-(((tetrahydro-2H-pyran-4-yl)thio)methyl)-3,4-dihydroquinazolin-7-yl)oxy)methyl)piperidin-1-yl)acetyl)piperidin-4-yl)methyl)piperazin-1-yl)isoindoline-1,3-dione formate] | < 100 |
| O=C1CCC(Nc2ccc(C(=O)N3CCC(COc4cc(F)c5c(=O)[nH]c(CSC6CCOCC6)nc5c4)CC3)cc2)C(=O)N1 (stereo not drawn) [Example 16, 3-((4-(4-(((5-fluoro-4-oxo-2-(((tetrahydro-2H-pyran-4-yl)thio)methyl)-3,4-dihydroquinazolin-7-yl)oxy)methyl)piperidine-1-carbonyl)phenyl)amino)piperidine-2,6-dione] | < 100 |
| O=C1CCC(N2Cc3c(cccc3N3CCN(CC4CCN(C(=O)CN5CCC(COc6cc(F)c7c(=O)[nH]c(CSC8CCOCC8)nc7c6)CC5)CC4)CC3)C2=O)C(=O)N1 (stereo not drawn) [Example 17, 3-(4-(4-((1-(2-(4-(((5-fluoro-4-oxo-2-(((tetrahydro-2H-pyran-4-yl)thio)methyl)-3,4-dihydroquinazolin-7-yl)oxy)methyl)piperidin-1-yl)acetyl)piperidin-4-yl)methyl)piperazin-1-yl)-1-oxoisoindolin-2-yl)piperidine-2,6-dione] | < 100 |
| O=C1CCC(Nc2ccc(C3CCN(CC4CCN(C(=O)CN5CCC(COc6cc(F)c7c(=O)[nH]c(CSC8CCOCC8)nc7c6)CC5)CC4)CC3)cc2)C(=O)N1 (stereo not drawn) [Example 18, 3-((4-(1-((1-(2-(4-(((5-fluoro-4-oxo-2-(((tetrahydro-2H-pyran-4-yl)thio)methyl)-3,4-dihydroquinazolin-7-yl)oxy)methyl)piperidin-1-yl)acetyl)piperidin-4-yl)methyl)piperidin-4-yl)phenyl)amino)piperidine-2,6-dione] | < 100 |
| O=C1CCN(c2ccc(C3CCN(CC4CCN(C(=O)CN5CCC(COc6cc(F)c7c(=O)[nH]c(CSC8CCOCC8)nc7c6)CC5)CC4)CC3)cc2)C(=O)N1 [Example 19, 1-(4-(1-((1-(2-(4-(((5-fluoro-4-oxo-2-(((tetrahydro-2H-pyran-4-yl)thio)methyl)-3,4-dihydroquinazolin-7-yl)oxy)methyl)piperidin-1-yl)acetyl)piperidin-4-yl)methyl)piperidin-4-yl)phenyl)dihydropyrimidine-2,4(1H,3H)-dione] | < 100 |
| O=C1CCC(N2C(=O)c3cccc(N4CCC(CN5CCC(C(=O)N6CCC(COc7cc(F)c8c(=O)[nH]c(CSC9CCOCC9)nc8c7)CC6)CC5)CC4)c3C2=O)C(=O)N1 (stereo not drawn) [Example 20, 2-(2,6-dioxopiperidin-3-yl)-4-(4-((4-(4-(((5-fluoro-4-oxo-2-(((tetrahydro-2H-pyran-4-yl)thio)methyl)-3,4-dihydroquinazolin-7-yl)oxy)methyl)piperidine-1-carbonyl)piperidin-1-yl)methyl)piperidin-1-yl)isoindoline-1,3-dione] | < 100 |
| O=C1CCC(N2C(=O)c3cccc(N4CCN(CC5CCN(C(=O)CN6CCC(COc7cc(F)c8c(=O)[nH]c(CSC9CCOCC9)nc8c7)CC6)CC5)CC4)c3C2=O)C(=O)N1 (stereo not drawn) [Example 21, 2-(2,6-dioxopiperidin-3-yl)-4-(4-((1-(2-(4-(((5-fluoro-4-oxo-2-(((tetrahydro-2H-pyran-4-yl)thio)methyl)-3,4-dihydroquinazolin-7-yl)oxy)methyl)piperidin-1-yl)acetyl)piperidin-4-yl)methyl)piperazin-1-yl)isoindoline-1,3-dione] | < 100 |
| O=C1CCC(N2C(=O)c3cccc(NCCOCC(=O)N4CCC(COc5cc(F)c6c(=O)[nH]c(CSC7CCOCC7)nc6c5)CC4)c3C2=O)C(=O)N1 (stereo not drawn) [Example 22, 2-(2,6-dioxopiperidin-3-yl)-4-((2-(2-(4-(((5-fluoro-4-oxo-2-(((tetrahydro-2H-pyran-4-yl)thio)methyl)-3,4-dihydroquinazolin-7-yl)oxy)methyl)piperidin-1-yl)-2-oxoethoxy)ethyl)amino)isoindoline-1,3-dione] | < 100 |
| O=C1CCC(N2Cc3cc(C#CCN4CCC(COc5cc(F)c6c(=O)[nH]c(CSC7CCOCC7)nc6c5)CC4)ccc3C2=O)C(=O)N1 (stereo not drawn) [Example 29, 3-(5-(3-(4-(((5-fluoro-4-oxo-2-(((tetrahydro-2H-pyran-4-yl)thio)methyl)-3,4-dihydroquinazolin-7-yl)oxy)methyl)piperidin-1-yl)prop-1-yn-1-yl)-1-oxoisoindolin-2-yl)piperidine-2,6-dione] | < 100 |
| O=C1CCC(N2Cc3c(C#CCN4CCC(COc5cc(F)c6c(=O)[nH]c(CSC7CCOCC7)nc6c5)CC4)cccc3C2=O)C(=O)N1 (stereo not drawn) [Example 30, 3-(4-(3-(4-(((5-fluoro-4-oxo-2-(((tetrahydro-2H-pyran-4-yl)thio)methyl)-3,4-dihydroquinazolin-7-yl)oxy)methyl)piperidin-1-yl)prop-1-yn-1-yl)-1-oxoisoindolin-2-yl)piperidine-2,6-dione] | < 100 |
| Cn1c(=O)n(C2CCC(=O)NC2=O)c2cccc(C#CCN3CCC(COc4cc(F)c5c(=O)[nH]c(CSC6CCOCC6)nc5c4)CC3)c21 (stereo not drawn) [Example 31, 3-(4-(3-(4-(((5-fluoro-4-oxo-2-(((tetrahydro-2H-pyran-4-yl)thio)methyl)-3,4-dihydroquinazolin-7-yl)oxy)methyl)piperidin-1-yl)prop-1-yn-1-yl)-3-methyl-2-oxo-2,3-dihydro-1H-benzo[d]imidazol-1-yl)piperidine-2,6-dione] | < 100 |
| O=C1CCN(c2ccc(C#CCN3CCC(COc4cc(F)c5c(=O)[nH]c(CSC6CCOCC6)nc5c4)CC3)cc2)C(=O)N1 [Example 32, 1-(4-(3-(4-(((5-fluoro-4-oxo-2-(((tetrahydro-2H-pyran-4-yl)thio)methyl)-3,4-dihydroquinazolin-7-yl)oxy)methyl)piperidin-1-yl)prop-1-yn-1-yl)phenyl)dihydropyrimidine-2,4(1H,3H)-dione] | < 100 |

More lines, now with the values ahead:

| DC50 [nM] | SMILES |
| --- | --- |
| < 100 | O=C1CCC(N2C(=O)c3ccc(N4CCC(COc5cc(F)c6c(=O)[nH]c(CSC7CCOCC7)nc6c5)CC4)cc3C2=O)C(=O)N1 (stereo not drawn) [Example 23, 2-(2,6-dioxopiperidin-3-yl)-5-(4-(((5-fluoro-4-oxo-2-(((tetrahydro-2H-pyran-4-yl)thio)methyl)-3,4-dihydroquinazolin-7-yl)oxy)methyl)piperidin-1-yl)isoindoline-1,3-dione] |
| < 100 | O=C1CCC(N2C(=O)c3cccc(N4CCC(COc5cc(F)c6c(=O)[nH]c(CSC7CCOCC7)nc6c5)CC4)c3C2=O)C(=O)N1 (stereo not drawn) [Example 24, 2-(2,6-dioxopiperidin-3-yl)-4-(4-(((5-fluoro-4-oxo-2-(((tetrahydro-2H-pyran-4-yl)thio)methyl)-3,4-dihydroquinazolin-7-yl)oxy)methyl)piperidin-1-yl)isoindoline-1,3-dione] |
| < 100 | O=C1CCC(N2C(=O)c3ccc(NC(=O)CN4CCC(COc5cc(F)c6c(=O)[nH]c(CSC7CCOCC7)nc6c5)CC4)cc3C2=O)C(=O)N1 (stereo not drawn) [Example 25, N-(2-(2,6-dioxopiperidin-3-yl)-1,3-dioxoisoindolin-5-yl)-2-(4-(((5-fluoro-4-oxo-2-(((tetrahydro-2H-pyran-4-yl)thio)methyl)-3,4-dihydroquinazolin-7-yl)oxy)methyl)piperidin-1-yl)acetamide] |
| < 100 | O=C1CCC(N2C(=O)c3cccc(NC(=O)CN4CCC(COc5cc(F)c6c(=O)[nH]c(CSC7CCOCC7)nc6c5)CC4)c3C2=O)C(=O)N1 (stereo not drawn) [Example 26, N-(2-(2,6-dioxopiperidin-3-yl)-1,3-dioxoisoindolin-4-yl)-2-(4-(((5-fluoro-4-oxo-2-(((tetrahydro-2H-pyran-4-yl)thio)methyl)-3,4-dihydroquinazolin-7-yl)oxy)methyl)piperidin-1-yl)acetamide] |
| < 100 | O=C1CCC(N2C(=O)c3ccc(C#CCN4CCC(COc5cc(F)c6c(=O)[nH]c(CSC7CCOCC7)nc6c5)CC4)cc3C2=O)C(=O)N1 (stereo not drawn) [Example 27, 2-(2,6-dioxopiperidin-3-yl)-5-(3-(4-(((5-fluoro-4-oxo-2-(((tetrahydro-2H-pyran-4-yl)thio)methyl)-3,4-dihydroquinazolin-7-yl)oxy)methyl)piperidin-1-yl)prop-1-yn-1-yl)isoindoline-1,3-dione] |
| < 100 | O=C1CCC(N2C(=O)c3cccc(C#CCN4CCC(COc5cc(F)c6c(=O)[nH]c(CSC7CCOCC7)nc6c5)CC4)c3C2=O)C(=O)N1 (stereo not drawn) [Example 28, 2-(2,6-dioxopiperidin-3-yl)-4-(3-(4-(((5-fluoro-4-oxo-2-(((tetrahydro-2H-pyran-4-yl)thio)methyl)-3,4-dihydroquinazolin-7-yl)oxy)methyl)piperidin-1-yl)prop-1-yn-1-yl)isoindoline-1,3-dione] |
